Target: T1, FaPAO5
T1 construct: 105 kDa fusion protein
Assay: isothermal titration calorimetry
Type: binding, Fragaria x ananassa
Conditions: pH 7.4, 30 °C, 200 mM NaCl, 20 mM Tris, 0.5 mM EDTA, 10 mM maltose; MBP fusion protein (10 µM in Methods, 20 µM in Results); ligand 100 µM
Excerpt: isothermal titration calorimetry on FaPAO5 | the binding of FaPAO5 to Spm and Spd followed a saturation kinetics curve

| Kd [nM] | Structure (SMILES) |
| --- | --- |
| 210 | NCCCNCCCCNCCCN [Spm] |
| 290 | NCCCCNCCCN [Spd] |

Reference: PMC7189608, “FaPAO5 regulates Spm/Spd levels as a signaling during strawberry fruit ripening” (Plant Direct, 2020)
